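Cultured in 96-well plates, cells were exposed to test compound for 48 hours across five concentrations. Here, GI50 denotes the concentration required for 50% inhibition of growth. Definition used: TGI = concentration required for complete inhibition of growth.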 Where a SMILES comes first, the peptide text is derived from it. The star is where a group is joined. Trt = c1ccc(C(c2ccccc2)(c2ccccc2)*)cc1; Cbz = O=C(OCc1ccccc1)*
Experiments:
Test in all cases: NCI tumour cell line growth inhibition, 48 h
[1] = test system: MALME-3M melanoma
[2] = test system: EKVX NSCLC
[3] = test system: COLO 205 colon
[4] = test system: K-562 leukemia
[5] = test system: SF-295 CNS
[6] = test system: NCI-H23 lung
[7] = test system: OVCAR-4 ovarian
[8] = test system: MOLT-4 leukemia

Row | Compound | GI50 [1] | TGI [1] | GI50 [2] | TGI [2] | GI50 [3] | TGI [3] | GI50 [4] | TGI [4] | GI50 [5] | TGI [5] | GI50 [6] | TGI [6] | GI50 [7] | TGI [7] | GI50 [8] | TGI [8]
1 | CN1CCN(c2ccc3nc(-c4ccc(OCCCCN5CCN(CCCCN6C(=O)c7cccc8cccc(c78)C6=O)CC5)cc4)[nH]c3c2)CC1 | 20.9 µM | 42.6 µM | > 100 µM | > 100 µM | 96.8 µM | > 100 µM | > 100 µM | > 100 µM | 62.4 µM | > 100 µM | > 100 µM | > 100 µM | > 100 µM | > 100 µM | 51.1 µM | > 100 µM
2 | O=C(/C=C/c1ccco1)c1ccc(Nc2nc(Nc3ccc(F)cc3)nc(Nc3ccc(F)cc3)n2)cc1 | 43.7 µM | > 100 µM | 54.3 µM | > 100 µM | 7.04 µM | 26.1 µM | 10.8 µM | 46 µM | 23.8 µM | 48.9 µM | 16.4 µM | 37 µM | 8.99 µM | 36.2 µM | 11.9 µM | 48.8 µM
3 | O=S(=O)(O)SCCNCCCCCC1CCCCC1 |  | 36.2 µM |  | 22.9 µM |  | 30.3 µM |  | > 35.8 µM |  | 16.4 µM |  | 27.5 µM |  | 32.3 µM |  | > 31 µM
4 | COc1cc(/C=N/NC(=O)c2ccccc2Nc2cccc(C(F)(F)F)c2)cc(OC)c1OC | 1.75 µM | 8.45 µM | 3.08 µM | 19.5 µM | 2.72 µM | 9.87 µM | 2.52 µM | > 37.2 µM | 0.471 µM | 3.04 µM | 6.37 µM | 23.1 µM | 3.37 µM | 15.2 µM | 3.14 µM | 15.3 µM
5 | O=C(CCCCCCCCC(=O)N/N=C\c1cc(Cl)ccc1O)N/N=C\c1cc(Cl)ccc1O | 0.462 µM | > 100 µM | 3.49 µM | > 100 µM | 3.19 µM | > 100 µM | 0.38 µM | 10.2 µM | 1.11 µM | > 46.5 µM | 0.636 µM | > 67.3 µM | 0.315 µM | > 100 µM | 0.222 µM | 17.6 µM
6 | Cn1cc(NC(=O)Nc2cc(C(=O)Nc3cc(C(=O)Nc4cc(S(=O)(=O)O)c5cc(S(=O)(=O)O)cc(S(=O)(=O)O)c5c4)n(C)c3)n(C)c2)cc1C(=O)Nc1cc(C(=O)Nc2cc(S(=O)(=O)O)c3cc(S(=O)(=O)O)cc(S(=O)(=O)O)c3c2)n(C)c1 |  | > 100 µM |  | > 100 µM |  | > 100 µM |  | > 100 µM |  | > 100 µM |  | > 100 µM |  | > 100 µM |  | > 100 µM
7 | CCCOC(=O)C1C2CCC(O2)C1C(=O)O (stereo not given) |  | > 100 µM |  | > 100 µM |  | > 100 µM |  | > 100 µM |  | > 100 µM |  | > 100 µM |  | > 100 µM |  | > 100 µM
8 | COC(=O)C(CSC(c1ccccc1)(c1ccccc1)c1ccccc1)NC(=O)C(CC(N)=O)NC(=O)OCc1ccccc1 (stereo not drawn) (Cbz-Asn-Cys(Trt)-OMe; configuration not given here) | 2.21 µM | 12.1 µM | 4.15 µM | 25.5 µM | 1.64 µM | 3.4 µM | 3.16 µM | 11.4 µM | 2.96 µM | 13.9 µM | 5.73 µM | 22.6 µM | 7.64 µM | 84.8 µM | 2.1 µM | 5.2 µM
9 | NNC(=O)C(O)C(O)C(=O)NN (stereo not given) |  | > 100 µM |  | > 100 µM |  | > 100 µM |  | > 100 µM |  | > 100 µM |  | > 100 µM |  | > 100 µM |  | > 100 µM
10 | CNC(c1ccncc1)C(NC)c1ccncc1 (stereo not given) |  | > 100 µM |  | > 100 µM |  | > 100 µM |  | > 100 µM |  | > 100 µM |  | > 100 µM |  | > 100 µM |  | > 100 µM
11 | Cc1ccc(S(=O)(=O)NC(CO)C(=O)O)cc1 (stereo not given) |  | > 100 µM |  | > 100 µM |  | > 100 µM |  | > 100 µM |  | > 100 µM |  | > 100 µM |  | > 100 µM |  | > 100 µM
12 | CC(=O)[C-](C(C)=O)c1ccccc1.CC(=O)[C-](C(C)=O)c1ccccc1.CC(=O)[C-](C(C)=O)c1ccccc1.[Cl-].[Zr+4] | > 100 µM | > 100 µM | > 100 µM | > 100 µM | > 100 µM | > 100 µM | > 100 µM | > 100 µM | > 100 µM | > 100 µM | > 100 µM | > 100 µM | > 100 µM | > 100 µM | > 100 µM | > 100 µM
13 | O=Cc1ccc(N2CCN(c3ccc(C=O)cc3)CC2)cc1 | 0.565 µM | > 100 µM | > 100 µM | > 100 µM | > 100 µM | > 100 µM | > 100 µM | > 100 µM | > 100 µM | > 100 µM | > 100 µM | > 100 µM | 5.68 µM | > 100 µM | > 100 µM | > 100 µM

— PubChem BioAssay (NCI)
